Experiment: Extraction of acrylic acid and 3-hydroxypropionic acid from aqueous stock solutions by ethyl acetate (partition between ethyl acetate and aqueous phase)
Assay type: physicochemical
Conditions: for Partition coefficient, D, average number of partition coefficients listed in Table 2: ethyl acetate / aqueous phase, average over the five stock solutions; for Partition Coefficient, D: ethyl acetate extractant phase / aqueous phase, 22° C.; for Separation Factor, S AA/3HP: partition coefficient of AA divided by that of 3HP
Method: The aqueous stock solutions comprise 30% 3-hydroxypropionic acid aqueous solution and 99% acrylic acid.
1. To a 15 ml centrifuge tube 5 ml of each acid stock solution and ethyl acetate extractant were added.
2. […] (rpm designates revolutions per minute).
4. The volumes of the aqueous and ethyl acetate extractant phases in the tubes were recorded.
The processing conditions and experimental results for the extraction of acrylic acid (AA) and 3-hydroxypropionic acid (3HP) by ethyl acetate are reported in the following Table 2.

[1] = Aqueous Stock Solution No. 1 (0.67 wt % AA, 1.34 wt % 3HP)
[2] = Aqueous Stock Solution No. 2 (3.33 wt % AA, 6.67 wt % 3HP)
[3] = Aqueous Stock Solution No. 3 (6.67 wt % AA, 13.34 wt % 3HP)
[4] = Aqueous Stock Solution No. 4 (9.99 wt % AA, 19.98 wt % 3HP)
[5] = Aqueous Stock Solution No. 5 (12.51 wt % AA, 25.05 wt % 3HP)

Row | Compound | Partition coefficient, D, average number of partition coefficients listed in Table 2 | Partition Coefficient, D [1] | Partition Coefficient, D [2] | Partition Coefficient, D [3] | Partition Coefficient, D [4] | Partition Coefficient, D [5] | Separation Factor, S AA/3HP (Aqueous Stock Solution No. 1) | Separation Factor, S AA/3HP (Aqueous Stock Solution No. 2) | Separation Factor, S AA/3HP (Aqueous Stock Solution No. 3) | Separation Factor, S AA/3HP (Aqueous Stock Solution No. 4) | Separation Factor, S AA/3HP (Aqueous Stock Solution No. 5)
1 | O=C(O)CCO [3HP, 3-hydroxypropionic acid] | 0.274 | 0.18 | 0.21 | 0.27 | 0.30 | 0.41 | – | – | – | – | –
2 | C=CC(=O)O [AA, acrylic acid] | 2.572 | 2.96 | 2.97 | 2.66 | 2.36 | 1.91 | 16.55 | 14.18 | 9.79 | 7.81 | 4.66

From patent publication US7279598B2, “Process for separating and recovering 3-hydroxypropionic acid and acrylic acid” (priority 2003, dated 2007)
